Source: patent US9839629B2, “Inhibitors of the renal outer medullary potassium channel” (Merck Sharp & Dohme Corp., priority 2013, dated 2017)

Target: T1, ROMK (Kir1.1) channel (Homo sapiens, UniProt P48048)
T1 sequence (P48048 1-391): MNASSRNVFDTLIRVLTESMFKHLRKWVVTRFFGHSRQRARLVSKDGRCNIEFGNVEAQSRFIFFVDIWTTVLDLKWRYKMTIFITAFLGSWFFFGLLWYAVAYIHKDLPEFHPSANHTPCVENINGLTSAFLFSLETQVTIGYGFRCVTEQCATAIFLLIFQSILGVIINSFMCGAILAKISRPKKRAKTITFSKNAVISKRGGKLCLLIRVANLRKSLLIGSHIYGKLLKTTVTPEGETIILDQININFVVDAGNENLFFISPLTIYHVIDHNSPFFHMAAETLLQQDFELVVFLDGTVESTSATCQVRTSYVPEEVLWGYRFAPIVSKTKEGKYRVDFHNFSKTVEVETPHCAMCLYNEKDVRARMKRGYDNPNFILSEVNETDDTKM
Experiment: Thallium Flux Assay
Format: cell-based
Method: A Thallium Flux Assay was performed on each of the final product compounds in the Examples. When the final product of an Example was an HCl salt, the salt was run in the Assay. This assay has been described previously; see, e.g., PCT Published Application WO 2013/062900.

Row | IC50 [nM] | Structure (SMILES)
1 | 40 | Cc1cc(-n2cnnn2)ccc1[C@@H](O)CN1CCC2(CC1)CCN(C1=CC(=O)OC1)CC2 [Example 24, (R)-4-(9-(2-hydroxy-2-(2-methyl-4-(1H-tetrazol-1-yl)phenyl)ethyl)-3,9-diazaspiro[5.5]undecan-3-yl)furan-2(5H)-one]
2 | 379 | O=C1C=C(N2CCC3(CCN(C(=O)Cc4cnc(-n5cnnn5)cn4)CC3)CC2)CO1 [Example 106, 4-(9-{[5-(1H-tetrazol-1-yl)pyrazin-2-yl]acetyl}-3,9-diazaspiro[5.5]undec-3-yl)furan-2(5H)-one]
3 | 49 | Cc1nc(-n2cnnn2)ccc1[C@@H](O)CN1CCC2(CC1)CCN(C1=CC(=O)CC1)CC2 [Example 70, (R)-3-(9-(2-hydroxy-2-(2-methyl-6-(1H-tetrazol-1-yl)pyridin-3-yl)ethyl)-3,9-diazaspiro[5.5]undecan-3-yl)cyclopent-2-enone]
4 | 443 | O=C1C=C(N2CCC3(CCN(CC(O)c4cnc(-n5cnnn5)nc4)CC3)CC2)CO1 (centres unmarked) [Example 15, 4-(9-(2-(2-(1H-tetrazol-1-yl)pyrimidin-5-yl)-2-hydroxyethyl)-3,9-diazaspiro[5.5]undecan-3-yl)furan-2(5H)-one]
5 | 171 | O=C1C=C(N2CCC3(CCN(C[C@H](O)c4ccc(-n5cnnn5)nc4)CC3)OC2=O)CO1 [Example 30, (R)-9-(2-(6-(1H-tetrazol-1-yl)pyridin-3-yl)-2-hydroxyethyl)-3-(5-oxo-2,5-dihydrofuran-3-yl)-1-oxa-3,9-diazaspiro[5.5]undecan-2-one]
6 | 317 | Cc1c(N2CCC3(CCN(C[C@H](O)c4ccc(-n5cnnn5)nn4)CC3)CC2)c(=O)c1=O [Example 83, (S)-3-(9-(2-(6-(1H-tetrazol-1-yl)pyridazin-3-yl)-2-hydroxyethyl)-3,9-diazaspiro[5.5]undecan-3-yl)-4-methylcyclobut-3-ene-1,2-dione]
7 | 330 | CC1=C(N2CCC3(CCN(C[C@H](O)c4ccc(-n5cnnn5)nc4C)CC3)CC2=O)COC1=O [Example 29, (R)-9-(2-hydroxy-2-(2-methyl-6-(1H-tetrazol-1-yl)pyridin-3-yl)ethyl)-3-(4-methyl-5-oxo-2,5-dihydrofuran-3-yl)-3,9-diazaspiro[5.5]undecan-2-one]
8 | 37 | CC1=C(N2CCC3(CCN(C[C@@H](O)c4ccc(-n5cnnn5)cn4)CC3)CC2)COC1=O [Example 52, (R)-4-(9-(2-(5-(1H-tetrazol-1-yl)pyridin-2-yl)-2-hydroxyethyl)-3,9-diazaspiro[5.5]undecan-3-yl)-3-methylfuran-2(5H)-one]
9 | 16 | CC1=C(N2CCC3(CCN(C[C@@H](O)c4ccc(-n5cnnn5)cc4)CC3)CC2)COC1=O [Example 50, (S)-4-(9-(2-(4-(1H-tetrazol-1-yl)phenyl)-2-hydroxyethyl)-3,9-diazaspiro[5.5]undecan-3-yl)-3-methylfuran-2(5H)-one]

Continued, compound first:

Row | Structure (SMILES) | IC50 [nM]
10 | Cc1c(N2CCC3(CCN(C[C@H](O)c4ccc5c(ccc6nnnn65)c4)CC3)CC2)c(=O)c1=O [Example 88, (R)-3-(9-(2-hydroxy-2-(tetrazolo[1,5-a]quinolin-7-yl)ethyl)-3,9-diazaspiro[5.5]undecan-3-yl)-4-methylcyclobut-3-ene-1,2-dione] | 223
11 | C[C@H]1Cc2cc([C@@H](O)CN3CCC4(CC3)CCN(C3=CC(=O)OC3)CC4)ccc2C(=O)O1 [Example 11, (S)-6-((R)-1-hydroxy-2-(9-(5-oxo-2,5-dihydrofuran-3-yl)-3,9-diazaspiro[5.5]undecan-3-yl)ethyl)-3-methylisochroman-1-one] | 180
12 | Cc1cc(-n2cnnn2)ccc1[C@@H](O)CN1CCC2(CC1)CCN(C1=CC(=O)CC1)CC2 [Example 73, (R)-3-(9-(2-hydroxy-2-(2-methyl-4-(1H-tetrazol-1-yl)phenyl)ethyl)-3,9-diazaspiro[5.5]undecan-3-yl)cyclopent-2-enone] | 179
13 | CO[C@@H](CN1CCC2(CC1)CCN(c1c(C)c(=O)c1=O)CC2)c1ccc2c(c1C)COC2=O [Example 4, (R)-3-(9-(2-methoxy-2-(4-methyl-1-oxo-1,3-dihydroisobenzofuran-5-yl)ethyl)-3,9-diazaspiro[5.5]undecan-3-yl)-4-methylcyclobut-3-ene-1,2-dione] | 230
14 | CO[C@@H](CN1CCC2(CC1)CCN(C1=CC(=O)OC1)CC2)c1ccc2c(c1C)COC2=O [Example 91, (R)-5-(1-methoxy-2-(9-(5-oxo-2,5-dihydrofuran-3-yl)-3,9-diazaspiro[5.5]undecan-3-yl)ethyl)-4-methylisobenzofuran-1(3H)-one] | 198
15 | Cc1c(N2CCC3(CCN(C[C@@H](O)c4ccc5c(ccc6nnnn65)c4)CC3)CC2)c(=O)c1=O [Example 89, (S)-3-(9-(2-hydroxy-2-(tetrazolo[1,5-a]quinolin-7-yl)ethyl)-3,9-diazaspiro[5.5]undecan-3-yl)-4-methylcyclobut-3-ene-1,2-dione] | 257
16 | Cc1c([C@@H](O)CN2CCC3(CC2)CCN(C2=CC(=O)OC2)C(C)C3)ccc2c1COC2=O (single isomer, unassigned) [Example 33] | 42
17 | CC1=C(N2CCC3(CCN(C[C@H](O)c4ccc5c(c4C)COC5=O)CC3)CC2)CCC1=O [Example 76, (R)-5-(1-hydroxy-2-(9-(2-methyl-3-oxocyclopent-1-en-1-yl)-3,9-diazaspiro[5.5]undecan-3-yl)ethyl)-4-methylisobenzofuran-1(3H)-one] | 109
18 | CC1=C(N2CCC3(CCN(C[C@@H](O)c4ccc(-n5cnnn5)nc4C)CC3)CC2)CCC1=O [Example 75, (S)-3-(9-(2-hydroxy-2-(2-methyl-6-(1H-tetrazol-1-yl)pyridin-3-yl)ethyl)-3,9-diazaspiro[5.5]undecan-3-yl)-2-methylcyclopent-2-enone] | 279
19 | Cc1c([C@@H](O)CN2CCC3(CC2)CCN(C2=CC(=O)OC2)C(=O)C3)ccc2c1COC2=O [Example 27, (R)-9-(2-hydroxy-2-(4-methyl-1-oxo-1,3-dihydroisobenzofuran-5-yl)ethyl)-3-(5-oxo-2,5-dihydrofuran-3-yl)-3,9-diazaspiro[5.5]undecan-2-one] | 433
20 | O=C1C=C(N2CCC3(CCN(C(=O)Cc4ccc(-n5cnnn5)cc4)CC3)CC2)CO1 [Example 102, 4-(9-{[4-(1H-tetrazol-1-yl)phenyl]acetyl}-3,9-diazaspiro[5.5]undec-3-yl)furan-2(5H)-one] | 116
21 | Cc1c(CCN2CCC3(CC2)CCN(c2c(C)c(=O)c2=O)CC3)ccc2c1COC2=O [Example 3, 3-methyl-4-(9-(2-(4-methyl-1-oxo-1,3-dihydroisobenzofuran-5-yl)ethyl)-3,9-diazaspiro[5.5]undecan-3-yl)cyclobut-3-ene-1,2-dione] | 93
22 | CC1=C(N2CCC3(CC2)CCN([C@@H](CO)c2ccc(-n4cnnn4)cc2C)CC3)COC1=O [Example 58, (R)-4-(9-(2-hydroxy-1-(2-methyl-4-(1H-tetrazol-1-yl)phenyl)ethyl)-3,9-diazaspiro[5.5]undecan-3-yl)-3-methylfuran-2(5H)-one] | 256
23 | CCc1c(N2CCC3(CCN(C[C@H](O)c4ccc5c(c4C)COC5=O)CC3)CC2)c(=O)c1=O [Example 79, (R)-3-ethyl-4-(9-(2-hydroxy-2-(4-methyl-1-oxo-1,3-dihydroisobenzofuran-5-yl)ethyl)-3,9-diazaspiro[5.5]undecan-3-yl)cyclobut-3-ene-1,2-dione] | 110
24 | Cc1c([C@@H](O)CN2CCC3(CC2)CCN(C2=C(C4CC4)C(=O)OC2)CC3)ccc2c1COC2=O [Example 44, (R)-5-(2-(9-(4-cyclopropyl-5-oxo-2,5-dihydrofuran-3-yl)-3,9-diazaspiro[5.5]undecan-3-yl)-1-hydroxyethyl)-4-methylisobenzofuran-1(3H)-one] | 17
25 | CC1=C(N2CCC3(CCN(C[C@@H](O)c4cncc(-n5cnnn5)n4)CC3)CC2)COC1=O [Example 66, (R)-4-(9-(2-(6-(1H-tetrazol-1-yl)pyrazin-2-yl)-2-hydroxyethyl)-3,9-diazaspiro[5.5]undecan-3-yl)-3-methylfuran-2(5H)-one] | 110
26 | Cc1c([C@@H](O)CN2CCC3(CC2)CCN(C2=C(c4ccncc4)C(=O)OC2)CC3)ccc2c1COC2=O [Example 42, (R)-5-(1-hydroxy-2-(9-(5-oxo-4-(pyridin-4-yl)-2,5-dihydrofuran-3-yl)-3,9-diazaspiro[5.5]undecan-3-yl)ethyl)-4-methylisobenzofuran-1(3H)-one] | 352
27 | CO[C@H](CN1CCC2(CC1)CCN(C1=CC(=O)OC1)CC2)c1ccc2c(c1C)COC2=O [Example 90, (S)-5-(1-methoxy-2-(9-(5-oxo-2,5-dihydrofuran-3-yl)-3,9-diazaspiro[5.5]undecan-3-yl)ethyl)-4-methylisobenzofuran-1(3H)-one] | 165
28 | CC1=C(N2CCC3(CC2)CCN([C@H](CO)c2ccc(-n4cnnn4)cc2C)CC3)COC1=O [Example 57, (S)-4-(9-(2-hydroxy-1-(2-methyl-4-(1H-tetrazol-1-yl)phenyl)ethyl)-3,9-diazaspiro[5.5]undecan-3-yl)-3-methylfuran-2(5H)-one] | 232
29 | Cc1c([C@@H](O)CN2CCC3(CC2)CCN(C2=CC(=O)OC2C)CC3)ccc2c1COC2=O (stereo partly drawn) [Example 37, 5-((1R)-1-hydroxy-2-(9-(2-methyl-5-oxo-2,5-dihydrofuran-3-yl)-3,9-diazaspiro[5.5]undecan-3-yl)ethyl)-4-methylisobenzofuran-1(3H)-one] | 140
